The text below walks through data of patent US6953671B2, “Plasma phospholipid transfer protein (PLTP) deficiency represents an anti-atherogenic state and PLTP inhibitor has anti-atherosclerosis action” (The Trustees of Columbia University in the City of New York, priority 2001, dated 2005).

For experiment [1], the system named is hepatocytes from apoBTg/PLTP0 and apoBTg mice. As to the kind of experiment: apoB/BLp accumulation in media of primary hepatocytes with or without heparin. The experiment is classed as cell-based, mouse. The following applies: 10 mg/ml heparin, 3 hr. As to the method:
(§1) Primary hepatocyte culture, immunoprecipitation and analysis of apoB or albumin from culture medium or cel lysate were performed as described previously^18. A, pulse change experiment, apoB in the cell media; B, pulse chase experiment, apoB in the cell lysate; C, determination of apoB secretion rate in the presence and absence of the proteoscflal inhibitor ALLN. Hepatocytes from apoBTg/PLTP0 and apoBTg mice were radiolabeled continuously with ^35Smethionine/cystein with or without 40 μg/ml ALLN fcr 30 mm. Cells ware lysed and lysates immunoprecipitated with apoB antibody. Samples were separated on SDS PAGE. D, determination of apoB secretion rate in the presence and absence of heparin. Hepatocytes from apoBTG/PLTP0 and apoBTg mice were radiolabeled continuously with ^35Smethionine/cystein with or without 10 mg/ml heparin for 3 hr. […]
(§2) Immunoprecipitation and analysis of apoB from culture medium or cell lysate: The primary hepatocytes were allowed to attach to dishes for 90 minutes. […] At each chase time point (30 minutes, 1 hour and 2 hours), medium apoB and cell lysate apoB were immunoprecipitated by apoB antibody together with protein A/G agarose, the precipitates were size-fractionated on a 4% SDS PAGE gel, the gel was dried, and the incorporation of ^35S into apoB48 and apoB100 was assessed with a Fuji Bio-Imaging Analyzer (Fuji Medical Systems, Stamford, Conn.).

The target in experiment [2] is plasma phospholipid transfer protein (PLTP) (UniProt P55065). As to the kind of experiment: PLTP inhibition assay (radiolabeled phospholipid transfer from vesicles to HDL by plasma). Format: biochemical. The conditions noted are these: 3 μl plasma, 0-50 μM compound, 400 μl assay. Here is the method: PLTP activity assays: Egg phosphatidylcholine (10 μmol) containing 10 nmol of [3H]PC (L-a-dipalmitoyl-[2-palmitoyl-9,10-3H(N)]-phosphatidylcholine) was dried under a stream of nitrogen, resuspended in 1 ml of a solution of 10 mM Tris, 150 mM NaCl, 1 mM ethylenediaminetetraacetic acid (EDTA) (pH 7.4), and then probe-sonicated and centrifuged. Transfer of radiolabeled phospholipid was measured by incubating 3 μl of plasma with radiolabeled phospholipid vesicles (125 nmol PC) and HDL (250 μg protein) in a final volume of 400 μl at 37° C. for 1 hour.
The following compound, which is a known cholesteryl ester transfer protein (CETP) inhibitor (compound No. 3 in Okamoto et al.^38) was dissolved in dimethlysulfonyl oxide (DMSO) (stock solution 2 mM): [drawing 1] A final volume of 400 μl assay system was prepared containing phosphatidylcholine, HDL, 3 μl of plasma, and 0-50 μM of the compound. Vesicles were subsequently precipitated by the addition of 300 μl of a solution of 500 mM NaCl, 215 mM MnCl2, 445 U/ml heparin, and the radioactivity of a 500-μl aliquot of the supernatant was measured.

The subject of experiment [3] is hepatocytes from apoBTg/PLTP0 and apoBTg mice. As to the kind of experiment: apoB in cell lysates of radiolabeled primary hepatocytes with or without ALLN. Format: cell-based, mouse. The following applies: 40 μg/ml ALLN, 30 min labeling; especially PLTP deficient cells. As to the method:
as §1, §2

By Ki is commonly meant the dissociation constant of the complex between target and ligand, obtained from inhibition or displacement. Low values mean a stronger hold on the target, high ones a looser hold on the target.

Where a SMILES comes first, the peptide text is derived from it. [ ]: non-standard residue; d: D form. Nle = CCCC[C@H](N)C(=O)O

As to heparin, the “accumulation of BLp in media” value in experiment [1] (PLTP deficient hepatocytes) is reported as “failed to increase BLp accumulation”; in experiment [1] (hepatocytes from apoB transgenic mice), “increased the accumulation of BLp in media”.
Turning to `CC(C)(C)C(=O)Nc1ccccc1SSc1ccccc1NC(=O)C(C)(C)C` [compound #3], the affinity in experiment [2] corresponds to a Ki of 15 µM.
As for `CCCC[C@@H](C=O)NC(=O)[C@H](CC(C)C)NC(=O)[C@H](CC(C)C)NC(C)=O` [ALLN, N-acetyl-leu-leu-norleu-AL] (Ac-Leu-Leu-[Nle]-aldehyde), the “levels of apoB within cells” value in experiment [3] is “increased levels of apoB within cells”.
